{
  "source": "patent US9969771B2",
  "about": "“Tetrapeptide having effect of inhibiting VEGF-induced angiogenesis and use thereof” (AVIXGEN INC., priority 2015, dated 2018)",
  "key": {"HUVECs [1]": {"test_system": "HUVECs", "experiment": "VEGF-induced HUVEC proliferation, [3H]-thymidine incorporation assay", "format": "cell-based, human", "experimental": "Human umbilical vein endothelial cells (HUVECs) were cultured in M199 medium, and during experiments, the cells were always used at passages 2 to 7. Meanwhile, mouse melanoma cells (B16F1 and B16F10) and human colorectal tumor cells (HCT116) were cultured in RPMI media supplemented with 10% FBS, 1 mM sodium pyruvate, 10 mM 4-(2-hydroxyethyl)-1-piperazineethanesulfonic acid and 100 U/ml penicillin-streptomycin, and human multiple myeloma cells (IM-9 and RPMI 8226) were cultured in RPMI-1640 media. All of the cells were cultured at 37° C. with 5% CO2 in a humidified incubator.\nAngiogenic activity was determined by measuring cell proliferation, migration and tube formation. HUVEC proliferation was analyzed by a [3H]-thymidine incorporation assay. The HUVECs were seeded in a 24-well plate coated with gelatin at a density of 2×10^4 cells/well. […] […] […] 3H-labeled polymer DNA was evaluated with a liquid scintillation counter."}, "HUVECs [2]": {"test_system": "HUVECs", "experiment": "HUVEC migration, transwell (Boyden chamber) assay", "format": "cell-based, human", "experimental": "HUVEC migration was analyzed using a transwell plate equipped with a 6.5-mm-diameter polycarbonate filter (8-μm pore size). A lower surface of the filter was coated with 10 μg of gelatin. […] Following incubation with various concentrations of tetrapeptides at room temperature for 30 minutes, HUVECs (1×10^6 cells/100 μl) were placed in upper wells. The cells were incubated at 37° C. in a constant temperature and humidity chamber for 4 hours. The migrated cells were stained with hematoxylin and eosin, and quantified under an optical microscope."}, "NO production in HUVECs": {"test_system": "NO production in HUVECs", "experiment": "NO production in HUVECs (DAF-FM diacetate)", "format": "cell-based, human", "settings": "peptide 0.15 nM, VEGF 10 ng/ml", "experimental": "An NO amount produced in HUVECs was evaluated with DAF-FM diacetate. HUVECs were reacted with peptides (0.15 nM) and VEGF (10 ng/ml) for 4 hours, and incubated with DAF-FM diacetate (5 μM) in a CO2 constant temperature incubator, and the amount of NO produced in the cells was measured under a confocal microscope."}, "FAK": {"test_system": "FAK", "experiment": "Western blot, FAK phosphorylation in VEGF-A-stimulated HUVECs", "format": "cell-based, human", "settings": "HUVECs stimulated with VEGF-A", "experimental": "Cells were lyzed in RIPA buffer, and 50 μg of proteins were isolated by SDS-PAGE and then transferred to a PVDF membrane. The membrane was reacted with an antibody with respect to a target protein for 2 hours. The membrane was washed twice and reacted with a horseradish peroxidase-conjugated antibody, and then an amount of the target proteins was assessed with an enhanced chemiluminescence system."}, "VEGFR-2 [3]": {"biological_target": "T1, VEGFR-2 (Homo sapiens, UniProt P35968)", "T1 sequence (P35968 20-1356)": "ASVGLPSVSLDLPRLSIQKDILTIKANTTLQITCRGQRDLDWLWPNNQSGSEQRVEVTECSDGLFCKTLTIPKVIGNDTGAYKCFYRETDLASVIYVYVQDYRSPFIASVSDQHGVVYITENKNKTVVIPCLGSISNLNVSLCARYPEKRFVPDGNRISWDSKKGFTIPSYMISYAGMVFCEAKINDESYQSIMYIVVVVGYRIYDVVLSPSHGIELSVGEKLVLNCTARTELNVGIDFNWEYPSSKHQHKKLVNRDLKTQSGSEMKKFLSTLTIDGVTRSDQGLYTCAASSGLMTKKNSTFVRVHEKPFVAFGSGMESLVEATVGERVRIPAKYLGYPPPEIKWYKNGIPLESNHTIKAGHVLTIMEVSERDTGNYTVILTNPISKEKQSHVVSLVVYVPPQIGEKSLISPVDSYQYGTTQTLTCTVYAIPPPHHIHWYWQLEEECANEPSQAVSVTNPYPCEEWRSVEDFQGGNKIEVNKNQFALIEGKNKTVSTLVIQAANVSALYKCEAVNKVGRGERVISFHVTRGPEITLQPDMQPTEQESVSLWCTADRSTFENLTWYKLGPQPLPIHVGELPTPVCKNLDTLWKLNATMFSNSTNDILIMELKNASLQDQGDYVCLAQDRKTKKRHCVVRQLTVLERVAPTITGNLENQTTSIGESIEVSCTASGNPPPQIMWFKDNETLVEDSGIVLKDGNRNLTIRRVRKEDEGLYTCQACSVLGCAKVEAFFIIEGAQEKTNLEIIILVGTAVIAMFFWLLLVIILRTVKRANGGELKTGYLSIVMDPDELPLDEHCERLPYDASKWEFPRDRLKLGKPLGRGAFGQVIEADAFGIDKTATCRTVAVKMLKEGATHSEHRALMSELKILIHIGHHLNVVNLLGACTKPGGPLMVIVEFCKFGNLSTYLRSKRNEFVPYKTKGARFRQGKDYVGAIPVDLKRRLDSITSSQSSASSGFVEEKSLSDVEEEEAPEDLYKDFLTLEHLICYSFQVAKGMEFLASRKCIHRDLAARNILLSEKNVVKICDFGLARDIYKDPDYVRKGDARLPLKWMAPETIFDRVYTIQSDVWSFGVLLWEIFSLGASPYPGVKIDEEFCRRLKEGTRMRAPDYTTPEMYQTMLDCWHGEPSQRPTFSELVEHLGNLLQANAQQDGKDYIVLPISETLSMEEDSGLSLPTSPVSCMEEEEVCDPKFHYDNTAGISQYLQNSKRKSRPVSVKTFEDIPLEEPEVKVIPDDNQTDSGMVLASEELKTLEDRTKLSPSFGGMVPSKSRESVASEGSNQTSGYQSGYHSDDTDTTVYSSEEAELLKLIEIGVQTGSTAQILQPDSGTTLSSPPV", "experiment": "Surface plasmon resonance (SPR) assay", "format": "binding", "settings": "rhVEGFR-2 fixed on CM5 chip", "experimental": "Binding dynamics and affinity of RLYE (SEQ ID NO: 2) to rhVEGFR-2 were evaluated with BIAcore AB (Sweden). A carboxymethylated dextran biosensor chip (CM5, BIAcore AB) was activated with 1-ethyl-3-(3-dimethylaminopropyl)carbodiimide and N-hydroxysuccinimide according to the manufacturer's manual. The rhVEGFR-2 (1 ng/μl, 10 mM Hepes, 150 mM NaCl, 3 mM EDTA, 0.005% Tween-20-containing HBS-EP buffer) was injected over the activated CM5 chip for fixation. Various concentrations of an RLYE (SEQ ID NO: 2) solution was injected over the rhVEGFR-2-fixed center chip with a flow rate of 25 μl/min, and binding and non-binding characteristics between RLYE (SEQ ID NO: 2) and the rhVEGFR-2 were analyzed. The peptide bonds were measured in arbitrary response units, and after the injection of each sample (120 sec), the HBS-EP buffer was passed over a sensor surface to monitor dissociation. The equilibrium dissociation constant (Kd) was derived to a fixing step-combined model."}, "[4]": {"test_system": "HCT116 human colorectal tumor cells", "experiment": "Human colorectal tumor (HCT116) xenograft model", "format": "in vivo, nude mouse", "experimental": "100 μl each of 2×10^6 B16F1 mouse melanoma cells and 1×10^7 HCT116 human colorectal tumor cells were subcutaneously injected into the left side of a C57BL/6J mouse and a nude mouse. After a tumor volume reached at least 50 to 70 mm3 (taking about 7 days), saline or RLYE (SEQ ID NO: 2) (0.5 or 1.0 mg/kg) was peritoneally injected daily into the mice. A tumor size was two-dimensionally measured with calipers. A tumor volume (mm3) was calculated by a formula of […]. Following homogenization of tumor tissue with PBS and centrifugation (at 12,000×g for 5 min), a hemoglobin-containing supernatant was extracted to be used in analysis with Drabkin's reagent (Sigma). A hemoglobin level was measured by a cyanmethemoglobin method, and the amount of hemoglobin per gram of the tumor was calculated.\nTumor tissue was fixed in 10% formalin, and inserted into paraffin. A slide was prepared from a tissue section, embedded in xylene to remove the paraffin, and rehydrated with 100%, 95%, 80% and 70% ethanol (EtOH) in s stepwise manner. Afterward, the slide was washed with deionized water multiple times at room temperature. To inhibit an intracellular peroxidase activity, the section was reacted in 0.3% hydrogen peroxide-containing methanol for 15 minutes, washed with PBS three times, reacted in 3% goat serum-containing PBS at room temperature for 2 hours, and reacted with a PECAM-1 antibody overnight at 4° C. The tissue section slide was washed with PBS three times, and reacted with a TRITC-conjugated secondary antibody for 1 hour. In addition, the tumor tissue section was also reacted with FITC-isolectin B4 ([…]; Vector Laboratories) for 1 hour. The tissue section was washed with PBS three times, and treated with a Permount solution to make a slide, followed by observation of tumor blood vessels under a fluorescence microscope."}, "VEGFR-2 [5]": {"biological_target": "T1, VEGFR-2", "experiment": "VEGFR pull-down assay using biotin-labeled RLYE, VEGFR-2", "format": "binding", "design": "endogenous in cells; host or cells: HUVEC", "settings": "HUVEC lysate", "experimental": "HUVECs were lysed in a pull-down buffer [50 mM Tris-HCl (pH 8.0), 150 mM sodium chloride, 1.0% NP-40, 0.5% sodium deoxycholate and 0.1% SDS]. A lysate ([…] of proteins) was reacted with biotin-labeled RLYE (SEQ ID NO: 2) (0.15 or 1.5 nM) for 1 hour, and reacted with streptavidin-agarose beads ([…]) at 4° C. for 1 hour. RLYE (SEQ ID NO: 2)-binding proteins were isolated from the cell lysate through centrifugation, washed, and then boiled for 10 minutes. The bead-binding proteins were isolated by SDS-PAGE, and immunoblotting was performed with an antibody with respect to VEGFR-2 or VEGFR-1."}, "[6]": {"settings": "0.5 or 1.0 mg/kg per day peritoneally"}},
  "note": "“Also recorded” adds a separate entry of the source. Where a SMILES comes first, the peptide text is derived from it.",
  "data": [
    {"smiles": "CC(C)C[C@H](NC(=O)[C@@H](N)CCCNC(=N)N)C(=O)N[C@@H](Cc1ccc(O)cc1)C(=O)N[C@@H](CCC(=O)O)C(=O)O", "note": "[RLYE] (H-RLYE-OH; N-terminus and C-terminus assumed)", "values": [
      {"measurement": "inhibition of VEGF-induced HUVEC proliferation", "setting": "HUVECs [1]; VEGF 10 ng/ml, [3H]-thymidine incorporation", "value": "effectively inhibited"},
      {"measurement": "IC50 lower than that of the control KLYD (HUVEC proliferation)", "setting": "HUVECs [1]; versus KLYD", "value": 10, "unit": "fold"},
      {"measurement": "EGF-induced migration of HUVECs", "setting": "HUVECs [2]; EGF stimulated", "value": "does not affect"},
      {"measurement": "P1GF-induced HUVEC migration", "setting": "HUVECs [2]; P1GF (ligand of VEGFR-1)", "value": "does not inhibit"},
      {"measurement": "inhibition of VEGF-induced HUVEC migration", "setting": "HUVECs [2]; VEGF / VEGF-A stimulated", "value": "effectively inhibited; also recorded: certainly inhibits; also recorded: concentration-dependently inhibited"},
      {"measurement": "VEGF-B-induced HUVEC migration", "setting": "HUVECs [2]; VEGF-B (ligand of VEGFR-1)", "value": "does not inhibit"},
      {"measurement": "bFGF-induced migration of HUVECs", "setting": "HUVECs [2]; bFGF stimulated", "value": "did not inhibit"},
      {"measurement": "inhibition of VEGF-induced NO production", "setting": "NO production in HUVECs", "value": "effectively blocked; also recorded: effectively inhibited; also recorded: higher inhibitory effect than the control KLYD"},
      {"measurement": "phosphorylation of FAK", "setting": "FAK", "value": "inhibited"},
      {"measurement": "binding to rhVEGFR-2 (SPR)", "setting": "VEGFR-2 [3]", "value": "effectively binds"},
      {"measurement": "invasion of HUVECs into tumor tissue (isolectin B4 / PECAM-1 immunostaining)", "setting": "[4]", "value": "decreased depending on the amount of treated RLYE"},
      {"measurement": "tumor growth", "setting": "[4]; [6]", "value": "concentration-dependently inhibited"},
      {"measurement": "tumor size", "setting": "[4]; [6]", "value": "significantly reduced"},
      {"measurement": "decrease in hemoglobin content in tumor tissue", "setting": "[4]; compared with a control", "value": 41, "unit": "%"},
      {"measurement": "binding to VEGFR-2 (pull-down)", "setting": "VEGFR-2 [5]", "value": "binds to VEGFR-2"}
    ]}
  ]
}
